The source of these data is patent publication US20100255086A1, “Method for oral mucosal absorption of acetyl salycylic acid” (priority 2009, published 2010).

For series [1] the following is noted: long-term treatment; cited from earlier work.
The conditions of series [2]: cited from earlier work.
For series [3] the following is noted: cited from earlier work. The source holds these as a separate data set.

SMILES strings stand for the structures.

`CC(=O)Oc1ccccc1C(=O)O` [aspirin, acetyl salicylic acid] gave a Buccal absorption (normal buccal pH, no buffer added) of 5%. In addition, the “absorbed (buccal)” value (pH of 2.5, buffer solution added) is given as 70%. Further, the severe gastrointestinal complication entry in series [1] is on record as “up to 30%”. For the same molecule, the “acetyl salicylic acid reaching the stomach inactivated through deacetylation” value in series [2] is “At least thirty two”. Moreover, the solubility in water entry in series [3] was “does not dissolve in water”.
